Data as given in ChEMBL document CHEMBL1201862, “PubChem BioAssay data set” (2004).
The source made the active and inactive calls.

Experiments:
[1] = target: T1, Voltage-gated N-type calcium channel alpha-1B subunit/Amyloid beta A4 precursor protein-binding family A member 1 (Homo sapiens, UniProt Q00975+Q02410); type: protein assay
[2] = target: T1, Voltage-gated N-type calcium channel alpha-1B subunit/Amyloid beta A4 precursor protein-binding family A member 1; type: protein assay; remark: listed apart in the source
[3] = target: T2, Carboxy-terminal domain RNA polymerase II polypeptide A small phosphatase 1 (Homo sapiens, UniProt Q9GZU7); test: CTDSP1 inhibitors, concentration-response, biochemical, absorbance readout, ultra-high-throughput screen actives (AID 540297); type: functional
T2 sequence (Q9GZU7 whole entry): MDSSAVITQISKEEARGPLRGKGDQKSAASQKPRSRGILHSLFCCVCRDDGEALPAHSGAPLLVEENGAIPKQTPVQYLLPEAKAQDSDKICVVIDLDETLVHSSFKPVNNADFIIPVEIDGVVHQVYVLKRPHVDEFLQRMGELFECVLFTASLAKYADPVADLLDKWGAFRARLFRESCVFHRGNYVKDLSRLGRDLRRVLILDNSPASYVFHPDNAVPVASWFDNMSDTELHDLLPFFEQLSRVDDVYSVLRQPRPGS

[4] = target: T3, Small ubiquitin-related modifier 1 (Homo sapiens, UniProt P63165); test: SUMO1 protein interaction blockers, potency – biochemical, fluorescence polarization, uHTS hits, dose response (AID 624382); type: functional; conditions: read-out: IC50_Mean
[5] = target: T3, Small ubiquitin-related modifier 1; test: SUMO1 protein-protein binding blockers, potency – biochemical, FRET, dose response (AID 624383); type: functional; conditions: read-out: IC50_Mean
[6] = activation of miR-122 Renilla sensor silencing – cell-based, Huh7 psiCHECK-miR122, Renilla luciferase, cherry-picked, dose response (AID 651956); type: functional;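 also: huh7 hepatoma cells stably carrying a psiCHECK-2 miR-122 sensor plasmid; renilla luciferase signal reporting endogenous miR-122 activity after 48 h compound exposure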
[7] = Trypanosoma cruzi growth suppression in host cells – NIH3T3 host cells, beta-gal luminescence, confirmation (AID 2044); type: functional, cell-based;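 also: intracellular parasites grown in NIH/3T3 mouse fibroblasts as host cells; luminescent beta-galactosidase reporter signal from transgenic T. cruzi replicating inside host cells; inhibitors lower the luminescence signal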
[8] = NIH3T3 cell viability loss – ATP luminescence, mouse fibroblasts, counter-screen, dose response (AID 2010); type: functional, cell-based;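 also: cells exposed to compound for about 90 hours before reading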
[9] = Luminescence Cell-Based Dose Retest to Confirm Inhibitors of Cancer Stem Cells. [Related pubchem assays (depositor defined):AID2717, AID2721]; type: functional; conditions: Homo sapiens
[10] = target: T4, Short transient receptor potential channel 4 (Mus musculus, UniProt Q9QUQ5); test: calcium entry via TRPC4 opening agents – cell-based, HEK293 TRPC4/mu-opioid, Fluo-4 calcium, dose response (AID 434937); type: functional
T4 sequence (Q9QUQ5 whole entry): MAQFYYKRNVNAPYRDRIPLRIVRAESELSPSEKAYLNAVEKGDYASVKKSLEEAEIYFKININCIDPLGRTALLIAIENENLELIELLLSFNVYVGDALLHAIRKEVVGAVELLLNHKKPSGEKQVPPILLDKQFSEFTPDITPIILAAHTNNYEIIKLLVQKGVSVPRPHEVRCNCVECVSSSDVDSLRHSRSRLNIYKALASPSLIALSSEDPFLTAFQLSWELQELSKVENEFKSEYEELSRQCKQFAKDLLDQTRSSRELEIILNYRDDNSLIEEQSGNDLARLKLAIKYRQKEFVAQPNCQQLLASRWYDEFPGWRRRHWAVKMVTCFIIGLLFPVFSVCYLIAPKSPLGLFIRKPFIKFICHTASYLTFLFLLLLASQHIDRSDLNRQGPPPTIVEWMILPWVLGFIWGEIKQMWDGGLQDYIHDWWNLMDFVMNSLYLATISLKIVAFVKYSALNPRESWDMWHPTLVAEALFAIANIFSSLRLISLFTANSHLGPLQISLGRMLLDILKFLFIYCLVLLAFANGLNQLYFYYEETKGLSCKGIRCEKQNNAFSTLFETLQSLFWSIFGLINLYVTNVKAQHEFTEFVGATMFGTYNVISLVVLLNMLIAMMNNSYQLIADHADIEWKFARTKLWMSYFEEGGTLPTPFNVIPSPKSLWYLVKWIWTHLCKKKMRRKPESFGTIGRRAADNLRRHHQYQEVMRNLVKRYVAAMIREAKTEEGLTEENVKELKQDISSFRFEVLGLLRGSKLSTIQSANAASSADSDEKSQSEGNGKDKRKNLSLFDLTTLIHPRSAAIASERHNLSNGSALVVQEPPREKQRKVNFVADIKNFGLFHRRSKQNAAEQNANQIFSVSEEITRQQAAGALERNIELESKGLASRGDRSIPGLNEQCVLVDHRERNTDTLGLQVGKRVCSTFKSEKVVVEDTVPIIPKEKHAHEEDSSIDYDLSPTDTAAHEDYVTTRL

[11] = reduction of Shn3 3'UTR-driven luciferase in osteoblasts – cell-based, Clone20 osteoblasts, firefly luciferase, cherry-picked, dose response (AID 624132); type: functional;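 also: firefly luciferase luminescence from reporter carrying the Shn3 3'UTR in osteoblasts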
[12] = loss of viability in HepG2 cells – cell-based, CellTiter-Glo, cherry-picked, cytotoxicity control for Shn3 inhibitor project, dose response (AID 624134); type: functional
[13] = non-specific 3'UTR reporter inhibition in Clone20-Shn3RL – cell-based, Renilla luciferase, cherry-picked, counter-screen for Shn3 inhibitor project, dose response (AID 624133); type: functional
[14] = viability loss in HeLa cells – cytotoxicity control for MgcRacGAP inhibitor project, dose response (AID 624300); type: functional
[15] = target: T5, Rac GTPase-activating protein 1 (Homo sapiens, UniProt Q9H0H5); test: blockers of MgcRacGAP-driven Rac1 GTP hydrolysis – biochemical, ADP Hunter fluorescence, primary and confirmatory, confirmation (AID 624330); type: functional
T5 sequence (Q9H0H5 whole entry): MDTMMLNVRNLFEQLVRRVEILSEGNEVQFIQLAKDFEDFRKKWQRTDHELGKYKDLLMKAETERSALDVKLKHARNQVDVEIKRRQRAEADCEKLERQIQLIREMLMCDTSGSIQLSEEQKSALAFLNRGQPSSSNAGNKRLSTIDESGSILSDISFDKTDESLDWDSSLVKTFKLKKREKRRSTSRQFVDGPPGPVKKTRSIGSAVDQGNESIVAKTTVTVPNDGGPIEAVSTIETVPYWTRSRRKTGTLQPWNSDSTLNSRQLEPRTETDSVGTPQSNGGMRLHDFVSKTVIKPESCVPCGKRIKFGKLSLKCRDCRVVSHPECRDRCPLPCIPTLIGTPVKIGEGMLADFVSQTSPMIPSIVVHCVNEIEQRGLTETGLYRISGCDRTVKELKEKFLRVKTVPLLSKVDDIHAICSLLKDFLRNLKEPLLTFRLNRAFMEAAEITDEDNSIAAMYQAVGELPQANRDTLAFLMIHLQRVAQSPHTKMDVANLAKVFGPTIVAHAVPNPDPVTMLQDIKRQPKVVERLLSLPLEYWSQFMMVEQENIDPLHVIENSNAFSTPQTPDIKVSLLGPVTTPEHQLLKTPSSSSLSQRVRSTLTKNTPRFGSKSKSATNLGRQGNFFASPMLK

INS1 = test: INS-1E survival protection against cytokine death – cell-based, luminescence, retest, dose response (AID 449756); type: functional; conditions: Rattus norvegicus;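 also: cell death triggered by IL-1 beta plus TNF-alpha plus IFN-gamma mixture; protective hits raise ATP signal compared with cytokine alone wells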
[16] = target: T6, Low molecular weight phosphotyrosine protein phosphatase (Homo sapiens, UniProt P24666); type: functional; conditions: read-out: IC50_Mean
T6 sequence (P24666 whole entry): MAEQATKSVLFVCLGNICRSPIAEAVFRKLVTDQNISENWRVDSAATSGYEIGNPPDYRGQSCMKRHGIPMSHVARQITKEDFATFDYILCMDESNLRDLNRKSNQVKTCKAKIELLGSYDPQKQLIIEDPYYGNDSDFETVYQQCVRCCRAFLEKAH

[17] = target: T6, Low molecular weight phosphotyrosine protein phosphatase; type: functional; conditions: read-out: IC50_Mean; remark: listed apart in the source

T1 sequence (Q00975 whole entry): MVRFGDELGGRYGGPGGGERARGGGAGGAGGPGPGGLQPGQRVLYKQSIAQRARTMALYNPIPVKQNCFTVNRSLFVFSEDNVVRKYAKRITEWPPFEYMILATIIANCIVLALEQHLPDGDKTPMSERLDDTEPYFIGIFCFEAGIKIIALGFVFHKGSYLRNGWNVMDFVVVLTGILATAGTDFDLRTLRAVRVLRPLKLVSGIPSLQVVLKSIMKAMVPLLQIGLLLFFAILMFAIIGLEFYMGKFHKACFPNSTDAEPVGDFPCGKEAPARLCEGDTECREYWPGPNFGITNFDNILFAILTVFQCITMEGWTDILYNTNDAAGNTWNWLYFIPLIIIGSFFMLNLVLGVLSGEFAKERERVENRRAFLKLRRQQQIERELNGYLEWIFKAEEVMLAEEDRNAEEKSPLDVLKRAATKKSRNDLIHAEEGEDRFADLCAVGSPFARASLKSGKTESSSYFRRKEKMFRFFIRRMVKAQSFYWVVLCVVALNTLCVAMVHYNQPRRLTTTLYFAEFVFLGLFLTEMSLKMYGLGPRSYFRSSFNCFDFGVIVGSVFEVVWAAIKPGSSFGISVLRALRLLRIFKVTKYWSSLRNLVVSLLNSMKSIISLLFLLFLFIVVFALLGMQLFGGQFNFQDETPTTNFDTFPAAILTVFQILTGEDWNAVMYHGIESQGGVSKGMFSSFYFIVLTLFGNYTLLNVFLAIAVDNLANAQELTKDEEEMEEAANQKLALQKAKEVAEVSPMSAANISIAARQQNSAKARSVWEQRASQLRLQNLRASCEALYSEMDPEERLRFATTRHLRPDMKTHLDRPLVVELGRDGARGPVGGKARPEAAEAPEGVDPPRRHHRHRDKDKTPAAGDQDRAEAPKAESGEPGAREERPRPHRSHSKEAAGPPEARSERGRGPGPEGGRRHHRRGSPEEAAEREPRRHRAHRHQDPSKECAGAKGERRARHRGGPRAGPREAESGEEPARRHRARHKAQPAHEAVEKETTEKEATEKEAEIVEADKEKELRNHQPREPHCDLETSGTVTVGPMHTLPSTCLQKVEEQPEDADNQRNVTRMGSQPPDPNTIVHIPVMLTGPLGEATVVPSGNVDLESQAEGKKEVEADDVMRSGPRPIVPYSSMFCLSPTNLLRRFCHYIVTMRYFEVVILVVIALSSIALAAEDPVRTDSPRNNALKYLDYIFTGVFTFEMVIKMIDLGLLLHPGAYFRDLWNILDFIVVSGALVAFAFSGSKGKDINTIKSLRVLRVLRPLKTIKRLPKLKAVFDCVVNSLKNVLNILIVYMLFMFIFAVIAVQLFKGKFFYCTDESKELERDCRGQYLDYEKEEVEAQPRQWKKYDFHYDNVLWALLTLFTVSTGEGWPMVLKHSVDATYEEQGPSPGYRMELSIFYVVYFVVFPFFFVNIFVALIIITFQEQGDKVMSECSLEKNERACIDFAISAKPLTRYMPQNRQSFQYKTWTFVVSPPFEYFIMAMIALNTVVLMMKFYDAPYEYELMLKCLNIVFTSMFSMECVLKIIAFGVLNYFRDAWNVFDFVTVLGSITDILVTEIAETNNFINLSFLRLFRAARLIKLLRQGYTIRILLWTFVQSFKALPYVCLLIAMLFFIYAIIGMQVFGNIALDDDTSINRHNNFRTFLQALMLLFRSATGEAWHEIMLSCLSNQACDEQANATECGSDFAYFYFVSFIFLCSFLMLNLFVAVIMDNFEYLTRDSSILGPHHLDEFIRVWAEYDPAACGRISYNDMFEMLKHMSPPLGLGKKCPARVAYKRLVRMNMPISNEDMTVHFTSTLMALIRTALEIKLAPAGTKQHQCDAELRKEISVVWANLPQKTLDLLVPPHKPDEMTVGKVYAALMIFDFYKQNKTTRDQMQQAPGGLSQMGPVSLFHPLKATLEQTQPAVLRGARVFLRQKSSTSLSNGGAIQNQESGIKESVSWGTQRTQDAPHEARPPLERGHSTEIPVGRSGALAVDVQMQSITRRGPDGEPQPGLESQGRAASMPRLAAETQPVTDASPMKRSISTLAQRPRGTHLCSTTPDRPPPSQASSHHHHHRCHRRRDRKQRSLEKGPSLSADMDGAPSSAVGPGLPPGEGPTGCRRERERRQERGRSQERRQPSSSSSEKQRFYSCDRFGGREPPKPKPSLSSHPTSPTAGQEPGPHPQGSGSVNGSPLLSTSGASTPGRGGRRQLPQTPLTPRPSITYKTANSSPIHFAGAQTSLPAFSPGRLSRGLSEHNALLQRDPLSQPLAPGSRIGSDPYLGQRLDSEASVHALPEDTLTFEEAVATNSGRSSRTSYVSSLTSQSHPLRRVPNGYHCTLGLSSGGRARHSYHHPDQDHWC
T1 sequence (Q02410 whole entry): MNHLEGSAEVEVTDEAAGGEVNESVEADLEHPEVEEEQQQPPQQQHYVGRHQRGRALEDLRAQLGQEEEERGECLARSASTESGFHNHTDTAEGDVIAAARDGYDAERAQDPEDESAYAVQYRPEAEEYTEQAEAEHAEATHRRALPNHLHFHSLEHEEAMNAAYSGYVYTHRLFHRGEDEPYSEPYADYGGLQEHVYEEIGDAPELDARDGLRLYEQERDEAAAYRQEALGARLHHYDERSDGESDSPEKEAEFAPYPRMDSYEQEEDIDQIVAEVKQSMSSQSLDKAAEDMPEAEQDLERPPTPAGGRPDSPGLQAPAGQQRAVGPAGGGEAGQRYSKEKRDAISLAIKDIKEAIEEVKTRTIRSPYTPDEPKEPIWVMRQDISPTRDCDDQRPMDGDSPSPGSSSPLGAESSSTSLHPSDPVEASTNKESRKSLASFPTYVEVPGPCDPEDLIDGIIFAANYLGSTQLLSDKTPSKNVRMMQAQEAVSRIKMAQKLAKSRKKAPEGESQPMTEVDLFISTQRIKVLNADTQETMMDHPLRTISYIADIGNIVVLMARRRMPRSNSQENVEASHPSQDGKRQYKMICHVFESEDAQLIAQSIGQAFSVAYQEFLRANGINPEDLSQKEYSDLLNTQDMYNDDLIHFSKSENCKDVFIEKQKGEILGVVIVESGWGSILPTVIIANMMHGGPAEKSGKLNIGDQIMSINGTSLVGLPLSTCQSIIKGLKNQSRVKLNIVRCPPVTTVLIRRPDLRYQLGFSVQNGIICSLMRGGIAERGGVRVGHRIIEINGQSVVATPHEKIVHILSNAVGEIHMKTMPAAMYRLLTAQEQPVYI
T3 sequence (P63165 whole entry): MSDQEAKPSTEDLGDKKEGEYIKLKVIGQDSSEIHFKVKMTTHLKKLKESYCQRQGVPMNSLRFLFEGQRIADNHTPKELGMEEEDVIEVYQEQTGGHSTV

C=Cc1ccc(C(=O)N2CCCC(CCC(=O)N3CCN(c4ccccn4)CC3)C2)cc1 (configuration not stated)
IC50 [1]: 8.01 µM (active)
IC50 [2]: > 50 µM (inactive)
IC50 [3]: 22.2 µM (active)
IC50 [4]: > 66.6 µM (inactive)
IC50 [5]: 20.8 µM (inactive)

COCC(=O)N(C)C[C@H]1Oc2cc(C#Cc3cccnc3)ccc2S(=O)(=O)N([C@@H](C)CO)C[C@H]1C
AC50 [6]: 1.09 µM (active)

COc1ccc(CN2CCC(N(CCc3ccccc3)Cc3ccccc3)CC2)c(OC)c1
EC50 [7]: 1.49 µM (active)
EC50 [8]: > 60 µM (inconclusive)
AC50 [9]: 5.9 µM (active)
EC50 [10]: 5.31 µM (active)
AC50 [11]: 8.1 µM (active)
AC50 [12]: 13.6 µM (active)
AC50 [13]: 8.85 µM (active)
CC50 [14]: 56.3 µM (active)
IC50 [15]: 96.6 µM (active)

COc1ccc(Br)cc1CN1CCN(Cc2c[nH]c3ccccc23)CC1
AC50 (INS1): 6.6 µM (active)
CC50 [14]: 79.4 µM (active)
IC50 [15]: 86 µM (active)

CCOc1cc(/C=C(/C#N)C(=O)Nc2ccc(OC)cc2)ccc1OCc1ccc(C(=O)O)cc1
IC50 [1]: 13.1 µM (active)
IC50 [2]: > 50 µM (inactive)
IC50 [16]: 6.48 µM (active)
IC50 [17]: 9.46 µM (active)
